In one test the test system is human primary PASMCs. Put plainly: BrdU cell proliferation assay, human primary PASMCs. It counts as cell-based. As to conditions: PASMC. The procedure: Cell proliferation assay. Primary PASMCs and PAAFs from normal human subjects (ScienCell Research Laboratories, San Diego, Calif., USA) and rat primary PASMCs (Cell Applications, San Diego, Calif., USA) were plated in CellBIND® 96-well plates in Dulbecco's modification of Eagle's medium (DMEM) containing 5% fetal bovine serum (FBS), and serum-starved for 24 h in DMEM containing 0.1% FBS. Cells were first pre-incubated with different concentrations of palbociclib (in triplicates) for 30 minutes, and then 30 ng/ml PDGF-BB or 5% FBS was added to stimulate cell proliferation. Cells were maintained for 48 h before the proliferation rate was evaluated using the Cell Proliferation ELISA BrdU (bromodeoxyuridine) Luminescence Kit (Roche Diagnostics, Mannheim, Germany). BrdU was added to the medium 16 h before the quantification of BrdU incorporation. This procedure was use to generate data as presented in at least FIGS. 1a, 1b, 1c, and 1d. IC50 values were calculated for any given inhibitor by determining the concentration of compound needed to inhibit 50% of the response applied to the system. IC50 values were derived from the four parameter logistic equation which was fit to the compound concentration response data.

The next test relates to hPASMC. In words: EdU cell proliferation assay, hPASMC. It counts as cell-based. The settings on record: Homo sapiens, 5% FBS, N = 6, FIG. 1e, read-out: hPASMC IC50 (nM), inhibition of proliferation. The procedure:
Alternatively, rather than using BrdU, EdU (5-ethynyl-2′-deoxyuridine) can be used. Cells were first pre-incubated with different concentrations of the CDK inhibitor for 30 minutes, and then 5% FBS was added to stimulate cell proliferation. Cells were maintained for 24 h before the proliferation rate was evaluated using EDU Click-iT EdU Alexa Fluor® 647 HCS Assay (Thermofisher Scientific, USA). EdU was added to the medium 16 h before the quantification of EdU incorporation. Proliferation was quantified by scanning the 96-well plates using automated high content imaging platform equipped with appropriate fluorescence microscopic filters for DAPI (4′,6-Diamidino-2-Phenylindole) or Hoechst stain and Cyanine5 dyes as part of the Click-iT assay. Proliferating EdU positive cells detected at Cyanine5 were quantified and normalized to total cell number per well where the total cell number per cell was identified by DAPI or Hoechst signal. The % effect was then calculated:
The average (avg) amount (amt) of proliferating cells per concentration of CDK inhibitor with FBS present.
The minimum amount of proliferation (min amt of prolif'n) is based on cell numbers in the wells where FBS is not added and no CDK inhibitor is present.
The maximum amount of proliferation (max amt of prolif'n) is based on cell numbers in the wells where FBS is added and no CDK inhibitor is present.

Like-named read-outs stand apart in the source and are kept apart here.

As for `CC(=O)c1c(C)c2cnc(Nc3ccc(N4CCNCC4)cn3)nc2n(C2CCCC2)c1=O` [Palbociclib, 6-acetyl-8-cyclopentyl-5-methyl-2-{[5-(piperazin-1-yl)pyridin-2yl]amino}pyrido[2,3-d]pyrimidin-7(8H)-one], the IC50 stood at 7.4 nM with human primary PASMCs (30 ng/ml PDGF-BB, average of 3, FIG. 1a, read-out: IC50, PDGF-BB induced proliferation of human primary PASMCs); 7.4 nM in the test on human primary PASMCs (5% FBS, average of 3, FIG. 1b, read-out: IC50, proliferation of human primary PASMCs induced by 5% FBS); 0.3 nM with hPASMC.
